Test results: US20070270421A1, “Novel pyridine Derivative and Pyrimidine Derivative (1)” (priority 2004, published 2007)

Each molecule was assayed against T1, HGFR (His6-HGFR cytoplasmic domain) (Homo sapiens, UniProt P08581) (assay: Inhibitory activity against HGFR tyrosine kinase activity (HTRF)). Details: biotin-poly(GT), ATP, 30° C. 10 min, read-out: IC50 (concentration necessary to inhibit HGFR kinase activity by 50%).
T1 construct: made in house; host or cells: Spodoptera frugiperda Sf9 insect cells (baculovirus, pFastBac-HT)
T1 sequence (P08581 956-1390 limits assumed): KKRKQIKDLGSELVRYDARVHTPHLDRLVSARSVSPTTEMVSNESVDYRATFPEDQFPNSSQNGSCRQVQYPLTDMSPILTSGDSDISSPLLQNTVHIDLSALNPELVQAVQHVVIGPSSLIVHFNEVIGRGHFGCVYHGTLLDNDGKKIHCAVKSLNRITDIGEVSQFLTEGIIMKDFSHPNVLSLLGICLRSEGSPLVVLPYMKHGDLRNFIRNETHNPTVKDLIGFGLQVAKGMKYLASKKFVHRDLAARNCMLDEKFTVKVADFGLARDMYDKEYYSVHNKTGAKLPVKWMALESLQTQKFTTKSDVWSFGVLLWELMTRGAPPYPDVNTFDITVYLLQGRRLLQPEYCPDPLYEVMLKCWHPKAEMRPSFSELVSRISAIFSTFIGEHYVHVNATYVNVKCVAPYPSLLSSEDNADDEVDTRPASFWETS
Assay type: biochemical
How it was run: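 Baculovirus/Sf9-expressed N-terminal His6-tagged HGFR cytoplasmic domain (from Lys974), Ni-NTA purified, phosphorylated biotin-poly(GT) in Hepes pH 7.4 with MgCl2/MnCl2. ATP added as 4 μM solution; 10 min at 30° C., stopped with EDTA. Phosphotyrosine product detected by HTRF.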

Row | Structure (SMILES) | IC50
1 | CN(C)CCCN1CCC(N(C)C(=O)Nc2cc(Oc3ccc(NC(=S)NC(=O)Cc4ccc(F)cc4)cc3F)ccn2)CC1 [Example 225, 1-[1-(3-Dimethylaminopropyl)piperidin-4-yl]-3-[4-(2-fluoro-4-{3-[2-(4-fluorophenyl)acetyl]thioureido}phenoxy)pyridin-2-yl]-1-methylurea] | 79 nM
2 | CN(C)CCN1CCC(N(C)C(=O)Nc2cc(Oc3ccc(NC(=S)NC(=O)Cc4ccc(F)cc4)c(F)c3)ccn2)CC1 [Example 183] | 160 nM
3 | CN(C)C1CN(C2CCN(C(=O)Nc3cc(Oc4ccc(NC(=S)NC(=O)Cc5ccc(F)cc5)cc4)ccn3)CC2)C1 [Example 195, 4-[3-(Dimethylamino)azetidin-1-yl]piperidine-1-carboxylic acid [4-(4-{3-[2-(4-fluorophenyl)acetyl]thioureido}phenoxy)pyridin-2-yl]amide] | 57 nM
4 | CN1CCC(N(C)C(=O)Nc2cc(Oc3ccc(NC(=S)NC(=O)Cc4ccc(F)cc4)cc3F)ncn2)CC1 [Example 170, 3-[6-(2-Fluoro-4-{3-[2-(4-fluorophenyl)acetyl]thioureido}phenoxy)pyrimidin-4-yl]-1-methyl-1-(1-methylpiperidin-4-yl)urea] | 66 nM
5 | CN1CCC(N2CCN(C(=O)Nc3cc(Oc4ccc(NC(=S)NC(=O)Cc5ccccc5)cc4F)ccn3)CC2)CC1 [Example 326, 4-{2-Fluoro-4-[3-(2-phenylacetyl)thioureido]phenoxy}-2-{[4-(1-methylpiperidin-4-yl)piperazin-1-yl]carbonylamino}pyridine] | 130 nM
6 | CN(C)CCN1CCC(N(C)C(=O)Nc2cc(Oc3ccc(NC(=O)NC(=O)Cc4ccccc4)cc3F)ccn2)CC1 [Example 353, 1-[1-(2-Dimethylaminoethyl)piperidin-4-yl]-3-{4-[2-fluoro-4-(3-phenylacetylureido)phenoxy]pyridin-2-yl}-1-methylurea] | 180 nM
7 | O=C(Cc1ccc(F)cc1)NC(=S)Nc1ccc(Oc2cc(NC(=O)N3CCC(CN4CCCC4)CC3)ncn2)c(F)c1 [Example 349, 4-(Pyrrolidin-1-ylmethyl)piperidine-1-carboxylic acid [6-(2-fluoro-4-{3-[2-(4-fluorophenyl)acetyl]thioureido}phenoxy)pyrimidin-4-yl]amide] | 87 nM
8 | CN1CCC(N(C)C(=O)Nc2cc(Oc3ccc(NC(=O)NC(=O)Cc4ccc(F)cc4)c(F)c3)ccn2)CC1 [Example 290, 3-[4-(3-Fluoro-4-{3-[2-(4-fluorophenyl)acetyl]ureido}phenoxy)pyridin-2-yl]-1-methyl-1-(1-methylpiperidin-4-yl)urea] | 130 nM
9 | O=C(Cc1ccccc1)NC(=S)Nc1ccc(Oc2ccnc(NC(=O)N3CCN(CCN4CCC4)CC3)c2)c(F)c1 [Example 397, 4-[2-(Azetidin-1-yl)ethyl]piperazine-1-carboxylic acid {4-[2-fluoro-4-(3-phenylacetylthioureido)phenoxy]pyridin-2-yl}amide] | 55 nM
10 | CN1CCC(N2CCN(C(=O)Nc3cc(Oc4ccc(NC(=O)NC(=O)Cc5ccc(F)cc5)cc4)ccn3)CC2)CC1 [Example 346, 4-(4-{3-[2-(4-Fluorophenyl)acetyl]ureido}phenoxy)-2-{[4-(1-methylpiperidin-4-yl)piperazin-1-yl]carbonylamino}pyridine] | 100 nM
11 | CN(C)CC1CCN(C(=O)Nc2cc(Oc3ccc(NC(=O)NC(=O)Cc4ccccc4)cc3F)ccn2)CC1 [Example 342, 2-{[4-(Dimethylaminomethyl)piperidin-1-yl]carbonylamino}-4-{2-fluoro-4-[3-(2-phenylacetyl)ureido]phenoxy}pyridine] | 59 nM
12 | CN1CC(N2CCN(C(=O)Nc3cc(Oc4ccc(NC(=O)NC(=O)Cc5ccc(F)cc5)cc4F)ccn3)CC2)C1 [Example 383, 4-(1-Methylazetidin-3-yl)piperazine-1-carboxylic acid [4-(2-fluoro-4-{3-[2-(4-fluorophenyl)acetyl]ureido}phenoxy)pyridin-2-yl]amide] | 94 nM
13 | O=C(Cc1ccccc1)NC(=S)Nc1ccc(Oc2cc(NC(=O)N3CCC(N4CCCC4)CC3)ncn2)c(F)c1 [Example 8, 4-(Pyrrolidin-1-yl)piperidine-1-carboxylic acid {6-[2-fluoro-4-(3-phenylacetylthioureido)phenoxy]pyrimidin-4-yl}amide] | 83 nM
14 | CCN(CC)CCCN(C)C(=O)Nc1cc(Oc2ccc(NC(=O)NC(=O)Cc3ccccc3)cc2F)ccn1 [Example 49, 1-(3-Diethylaminopropyl)-3-{4-[2-fluoro-4-(3-phenylacetylureido)phenoxy]pyridin-2-yl}-1-methylurea] | 210 nM
15 | CN(C)C[C@H]1CCN(C(=O)Nc2cc(Oc3ccc(NC(=S)NC(=O)Cc4ccc(F)cc4)cc3F)ncn2)C1 [Example 209, 4-{[(3R)-3-(Dimethylaminomethyl)pyrrolidin-1-yl]carbonylamino}-6-(2-fluoro-4-{3-[2-(4-fluorophenyl)acetyl]thioureido}phenoxy)pyrimidine] | 65 nM

Further molecules by falling IC50, results first:

Row | IC50 | Structure (SMILES)
16 | 54 nM | CN(C)CCN1CCN(C(=O)Nc2cc(Oc3ccc(NC(=S)NC(=O)Cc4ccccc4)cc3F)ccn2)CC1 [Example 309, 2-{[4-(2-Dimethylaminoethyl)piperazin-1-yl]carbonylamino}-4-(2-fluoro-4-{3-[2-(phenyl)acetyl]thioureido}phenoxy)pyridine]
17 | 54 nM | CCC(=O)Nc1cc(Oc2ccc(NC(=O)CC(=O)Nc3ccc(F)cc3)c(F)c2)ccn1 [Example 75, N-(4-Fluorophenyl)-N′-[4-(2-propionylaminopyridin-4-yloxy)-2-fluorophenyl]malonamide]
18 | 50 nM | CN1CC(N2CCC(N(C)C(=O)Nc3cc(Oc4ccc(NC(=S)NC(=O)Cc5ccccc5)cc4F)ccn3)CC2)C1 [Example 330, 3-{4-[2-Fluoro-4-(3-phenylacetylthioureido)phenoxy]pyridin-2-yl}-1-methyl-1-[1-(1-methylazetidin-3-yl)piperidin-4-yl]urea]
19 | 50 nM | O=C(Cc1ccccc1)NC(=S)Nc1ccc(Oc2ccnc(NC(=O)N3CCC(N4CCC4)CC3)c2)c(F)c1 [Example 39, 2-{[4-(Azetidin-1-yl)piperidin-1-yl]carbonylamino}-4-{2-fluoro-4-[3-(2-phenylacetyl)thioureido]phenoxy}pyridine]
20 | 48 nM | CN1CCC[C@@H](N(C)C(=O)Nc2cc(Oc3ccc(NC(=S)NC(=O)Cc4ccc(F)cc4)cc3F)ncn2)C1 [Example 312, 3-[6-(2-Fluoro-4-{3-[2-(4-fluorophenyl)acetyl]thioureido}phenoxy)pyrimidin-4-yl]-1-methyl-1-[(3R)-1-methylpiperidin-3-yl]urea]
21 | 47 nM | O=C(Cc1ccccc1)NC(=S)Nc1ccc(Oc2ccnc(NC(=O)N3CCC(N4CCC(O)CC4)CC3)c2)c(F)c1 [Example 185, 4-{2-Fluoro-4-[3-(2-phenylacetyl)thioureido]phenoxy}-2-{[4-(4-hydroxypiperidin-1-yl)piperidin-1-yl]carbonylamino}pyridine]
22 | 25 nM | CN(C)C[C@@H]1CCN(C(=O)Nc2cc(Oc3ccc(NC(=S)NC(=O)Cc4ccc(F)cc4)cc3F)ncn2)C1 [Example 179, 4-{[(3S)-3-(Dimethylaminomethyl)pyrrolidin-1-yl]carbonylamino}-6-(2-fluoro-4-{3-[2-(4-fluorophenyl)acetyl]thioureido}phenoxy)pyrimidine]
23 | 12 nM | CN(C)C(=O)Nc1cc(Oc2ccc(NC(=O)CC(=O)Nc3ccc(F)cc3)c(F)c2)ccn1 [Example 84, N-{4-[2-(3,3-Dimethylureido)pyridin-4-yloxy]-2-fluorophenyl}-N′-(4-fluorophenyl)malonamide]
